Laboratory results published in patent publication US6777427B2, “Tetrahydroquinoline compounds” (priority 2000, dated 2004).

Columns and labels:
[1] = tested on: Orchiectomized (ORX) Rats; test: Action of increasing prostate weight in orchiectomized (ORX) rats, 8 days; assay type: in vivo, rat; details: for Weight of prostate: ORX SD rats, s.c. once daily for 8 days, DHT 10 mg/kg, Ex. 23 30 mg/kg, ventral prostate wet weight, Mean ± SD
Description: Testes were removed from 8-week-old male SD rats. […] In an ORX control group (Vehicle), dimethyl sulfoxide diluted with olive oil was used for the test. […] On the next day after final administration, the wet weight of the ventral prostate was measured to evaluate the AR agonistic effect of the compound of the present invention.

[2] = tested on: Ovariectomized (OVX) Rats; test: Action of increasing bone mass in ovariectomized (OVX) rats, 8 weeks; assay type: in vivo, rat; details: for Bone mineral density: OVX female SD rats, right femur, s.c. once daily, 5 days weekly, 8 weeks from 4 weeks postoperatively, DHT 10 mg/kg, Ex. 23 30 mg/kg, Mean ± SD
Description: Action of Increasing Bone Mass in Ovariectomized (OVX) Rats
Ovariectomy was performed in 12-week-old female SD rats. […] In an OVX control group (Vehicle), dimethyl sulfoxide diluted with olive oil was used for the test. […] On the next day after final administration, the right femur was removed, and fixed overnight in a 10% neutrally buffered formalin solution.

[3] = tested on: Orchiectomized (ORX) Rats; test: Action of increasing prostate weight and bone mass in orchiectomized (ORX) rats, 4 weeks; assay type: in vivo, rat; details: for Bone mineral density / Prostate weight: ORX SD rats, s.c. once daily, 5 days weekly, 4 weeks, DHT 10 mg/kg, Ex. 23 30 mg/kg, Mean ± SD; for Bone mineral density: right femur
Description: Orchiectomy was performed in 12-week-old male SD rats. […] In an ORX control group (Vehicle), dimethyl sulfoxide diluted with olive oil was used for the test. […] On the next day after final administration, the wet weight of the ventral prostate was measured to evaluate the AR agonistic effect of the compound of the present invention. On the next day following final administration, moreover, the right femur was removed, and fixed overnight in a 10% neutrally buffered formalin solution.

[4] = biological target: T1, Rat Androgen Receptors (Rat AR) (Rattus norvegicus, UniProt P15207); test: Test for competitive binding to rat androgen receptors (3H-testosterone displacement, prostate AR fraction); details: RBA=100×(IC50 of hydroxyflutamide)/(IC50 of the compound)
T1 construct: from tissue; host or cells: prostate of orchiectomized 11-week-old male SD rats (100,000 x g supernatant of the homogenate)
T1 sequence (P15207 1-902): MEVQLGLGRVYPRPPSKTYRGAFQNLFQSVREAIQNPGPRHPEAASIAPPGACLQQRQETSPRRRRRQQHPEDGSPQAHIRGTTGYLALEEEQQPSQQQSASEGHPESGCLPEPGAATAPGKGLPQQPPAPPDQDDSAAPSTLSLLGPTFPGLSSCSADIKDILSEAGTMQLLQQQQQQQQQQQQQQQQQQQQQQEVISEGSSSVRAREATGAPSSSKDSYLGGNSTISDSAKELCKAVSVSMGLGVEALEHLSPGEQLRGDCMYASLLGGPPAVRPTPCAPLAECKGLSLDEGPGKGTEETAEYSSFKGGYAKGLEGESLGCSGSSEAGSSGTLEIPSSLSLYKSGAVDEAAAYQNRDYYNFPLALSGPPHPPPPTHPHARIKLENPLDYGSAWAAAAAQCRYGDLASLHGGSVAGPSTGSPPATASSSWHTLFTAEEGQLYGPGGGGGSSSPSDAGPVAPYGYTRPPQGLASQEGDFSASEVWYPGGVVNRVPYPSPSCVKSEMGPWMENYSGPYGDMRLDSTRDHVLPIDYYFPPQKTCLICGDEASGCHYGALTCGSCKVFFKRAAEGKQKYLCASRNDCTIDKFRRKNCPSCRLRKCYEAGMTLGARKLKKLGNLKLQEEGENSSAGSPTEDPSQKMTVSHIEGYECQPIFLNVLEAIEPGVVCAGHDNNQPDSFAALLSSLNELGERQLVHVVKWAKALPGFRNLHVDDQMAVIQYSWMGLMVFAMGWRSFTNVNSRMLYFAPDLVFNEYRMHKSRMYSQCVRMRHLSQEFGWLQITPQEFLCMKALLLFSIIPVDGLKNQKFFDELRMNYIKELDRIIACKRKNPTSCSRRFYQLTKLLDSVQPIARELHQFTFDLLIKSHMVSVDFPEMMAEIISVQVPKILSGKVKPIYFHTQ
Description: Test for Competitive Binding to Rat Androgen Receptors (Rat AR)
Preparation of rat AR fraction: Prostates were harvested into ice-cooled ET buffer (10 mM Tris, 1 mM EDTA, 5 mM DTT, 10 mM sodium molybdate, pH 7.4) 3 days after orchiectomy in 11-week-old male SD rats. The prostate was finely cut, and ET buffer was added, whereafter the mixture was homogenized using a homogenizer. The homogenate was ultracentrifuged (100,000×g, 60 min, 4° C.), and the supernatant was used as a rat AR fraction (hereinafter referred to as ARF).
Binding test: ^3H-testosterone (hereinafter referred to as ^3H-T) was diluted with ET buffer. Dihydrotestosterone (DHT) was prepared so as to have a concentration (final concentration 1 μM) 400 times the maximum concentration of ^3H-T (2.5 nM). The ^3H-T solution was added to a 1.5 ml tube containing DHT, no DHT, or the test compound with a varying concentration. Further, 200 μg ARF was added to adjust the final volume to 100 μl. The mixture was incubated for 2 hours at 4° C., and then 300 μl of a 0.05% dextran T70-1.0% activated carbon solution was added. The mixture was further incubated for 15 minutes in ice to remove the free ^3H-T. After centrifugation (4° C., 2,500 rpm, 5 min), 275 μl of the supernatant was harvested into a liquid scintillation vial, and 2 ml of clear-sol was added. The mixture was stirred, allowed to stand, and measured for ^3H radioactivity with a liquid scintillation counter. […]
a: Radioactivity of the sample incorporating the compound of the present invention (^3H-T+compound) b: Radioactivity of the sample free from the compound of the present invention (only ^3H-T: amount of total binding) c: Radioactivity of the sample incorporating DHT (^3H-T+DHT: amount of nonspecific binding) The relative binding inhibition rate (RBA: Relative Binding Affinity) was obtained from the following equation (Endocrinology 138, 863-870, 1997): […]

male rats = test: AR antagonistic effect: inhibition of testosterone propionate-induced prostate weight increase; assay type: in vivo, rat; details: suggested by a Test Example; no data given
Description: Testes were removed from male rats. From 5 days postoperatively, testosterone propionate and the compound of the present invention were simultaneously administered once daily for one consecutive week by the subcutaneous route. On the next day after final administration, the wet weight of the ventral prostate was measured to evaluate the AR antagonistic effect of the compound of the present invention based on its inhibitory action on testosterone propionate-induced prostate weight increase.

## C[C@]12CCC(=O)C[C@@H]1CC[C@@H]1[C@@H]2CC[C@]2(C)[C@@H](O)CC[C@@H]12 [DHT, dihydrotestosterone, reference compound]
[1]
  Weight of prostate: 68 ± 16 mg/body weight (100 g)
[2]
  Bone mineral density: 120.8 ± 4.4 mg/cm^2
[3]
  Bone mineral density: 130 ± 7 mg/cm^2
  Prostate weight: 150 ± 14 mg/body weight 100 g

## CC(=O)OCC(C)(C)C1CC(N(C)C)c2cc([N+](=O)[O-])ccc2N1 (centres unmarked) [Example 9, Acetic acid 2-(4-dimethylamino-6-nitro-1,2,3,4-tetrahydroquinolin-2-yl)-2-methyl-propyl ester]
[4]
  RBA (Relative Binding Affinity): 79

## CN(C)C1CC(C(C)(C)COC(=O)c2ccc(F)cc2)Nc2ccc([N+](=O)[O-])cc21 (centres unmarked) [Example 11, 4-Fluorobenzoic acid 2-(4-dimethylamino-6-nitro-1,2,3,4-tetrahydroquinolin-2-yl)-2-methyl-propyl ester]
[4]
  RBA (Relative Binding Affinity): 98

## CN(C)C1CC(C(C)(C)CO)Nc2ccc([N+](=O)[O-])cc21 (centres unmarked) [Example 23, 2-(4-dimethylamino-6-nitro-1,2,3,4-tetrahydroquinolin-2-yl)-2-methylpropan-1-ol]
[1]
  Weight of prostate: 52 ± 12 mg/body weight (100 g)
[1]; ORX rats, consecutively administered for 8 days, 30 mg/kg s.c.
  Effect on prostate weight (in words): significantly increased prostate weights in comparison with the ORX control
[2]
  Bone mineral density: 120.9 ± 3.9 mg/cm^2
[2]; OVX rats, administered for 8 weeks, 30 mg/kg s.c.
  Effect on bone mineral density (in words): significantly increased the bone mineral density
[3]
  Bone mineral density: 134 ± 6 mg/cm^2
  Prostate weight: 78 ± 10 mg/body weight 100 g
[3]; ORX rats, administered for 4 weeks, 30 mg/kg s.c.
  Effect on atrophied prostate (in words): restored the atrophied prostate up to the level of the normal control
[3]; ORX rats, administered for 4 weeks, 30 mg/kg s.c., vs control group
  Effect on bone mineral density (in words): significantly increased the decreased bone mineral density

## CC(C)(CO)C1CC(NCc2ccccc2)c2cc([N+](=O)[O-])ccc2N1 (centres unmarked) [Example 30, 2-(4-Benzylamino-6-nitro-1,2,3,4-tetrahydroquinolin-2-yl)-2-methylpropan-1-ol]
[4]
  RBA (Relative Binding Affinity): 370

## CCCN(CCC)C1CC(C(C)(C)CO)Nc2ccc([N+](=O)[O-])cc21 (centres unmarked) [Example 33, 2-(4-Di-n-propylamino-6-nitro-1,2,3,4-tetrahydroquinolin-2-yl)-2-methylpropan-1-ol]
Male rats
  AR antagonistic effect (in words): AR antagonist

## CC(C)(O)C(=O)Nc1ccc([N+](=O)[O-])c(C(F)(F)F)c1 [Hydroxyflutamide, reference compound]
[4]
  RBA (Relative Binding Affinity): 100
